Experimental data from paper PMC11590367, “Characterization of novel small molecule inhibitors of estrogen receptor-activation function 2 (ER-AF2)” (Breast Cancer Research : BCR, 2024).

Experiments:
[1] = target: T1, ER-SRC3 interaction in MCF7 cells (Homo sapiens, UniProt P03372); test: Proximity ligation assay (PLA), MCF7; assay type: cell-based; conditions: 10 µM, 48 h, E2 stimulation
T1 construct: endogenous in cells; host or cells: MCF7 or TamR3 cells
Protocol: MCF7 or TamR3 cells were starved for 72 h and then seeded onto PEI coated coverslips in a 6-well plate at 1 × 10^5 cells/well. […] […] […] Coverslips were then permeabilized with 0.05% Triton X-100 for 5 minutes at room temperature. The Duolink In Situ Detection Reagents Red kit from Millipore Sigma (DUO92008) was used for blocking and PLA according to the manufacturer’s protocol. Primary antibodies, Estrogen Receptor alpha antibody (F-10) (sc-8002) and Rabbit anti-SRC3 antibody (A300-348 A), were diluted 1:50 in antibody diluent.

MCF7 spheroids = test: Viability assay in 3D spheroids, MCF7; assay type: cell-based; conditions: Homo sapiens, 1:2 dilution from 50 µM, 1 nM E2, read-out: IC50 on growth (area) of MCF7 spheroids
Protocol: MCF7 and T47D cells were seeded into a Corning Costar ultra-low attachment, round-bottom, 96-well plate (Millipore Sigma, CLS7007-24EA) at a density of 2,500 cells/well in starvation media. After 4 days of starvation, the cells were treated with a 1:2 serial dilution of inhibitor from 50 µM to 0.2 µM in the presence of 1 nM estradiol. Images were taken every 6 h using the IncuCyte S3 system and spheroid sizes were determined with the IncuCyte analysis software.

[2] = test system: ER transcriptional activity in T47D-KBluc cells; test: Luciferase transcriptional assay; assay type: cell-based; conditions: ER transcription, luciferase reporter, 1 nM E2, 24 h treatment, ± SD of 3 biological replicates
Protocol: T47D-KBluc cells or PC3m-luc cells were starved for 72 h and then seeded into 96-well plates at 20,000 or 5,000 cells/well, respectively. […] One day post-treatment, the media was removed, and cells were lysed with 65 µl of 1x passive lysis buffer (Promega #E1910). Following two freeze-thaw cycles, 20 µl of lysate were transferred to a white, 96-well flat bottom plate (Corning Life Sciences Cat#3912). 50 µl of luciferase reagent (Promega. Luciferase Assay System E1500) was added to each well, and luminescence was measured using the TECAN M200 Pro plate reader. E2 (1 nM), 4-hydroxytamoxifen (OHT) (4 nM), and DMSO (0.2%) were used as controls for this assay. […] E2 alone represented 100% transcriptional activation, while the 0.2% DMSO control represented 0% transcriptional activity. OHT was used as a positive control for an active compound.

[3] = Precipitation in MST assay buffer; assay type: physicochemical; conditions: 2% DMSO, 0.03 to 1000 µM
Protocol: MST was used to validate the direct binding and measure the binding affinities between the lead compounds and the recombinant ER-LBD. ER-LBD was labeled with red fluorescent dye using a Protein Labeling Kit RED-NHS 2nd Generation (Nanotemper MO-L011) according to the manufacturer’s protocol. The compounds were serially diluted 1:2 in 100% DMSO from 50 to 0.0015 mM, then added to 10 nM of labeled ER protein in the assay buffer (25 mM Tris, pH 8.4, 150 mM NaCl, 20 µM E2, 0.1 mM PMSF, 0.05% Tween20) at final concentrations of 0.03 to 1000 µM. Recombinant proteins in cell free assays are not affected by DMSO concentrations up to 10%. A final concentration of 2% DMSO was chosen for MST as the compounds required this concentration to be soluble in the assay buffer. […] The corresponding data points were removed from the analysis. […] Each protein/compound mixture was then loaded into Monolith Premium Capillaries (Nanotemper MO-K025). All assays were conducted with medium MST power and 20% excitation power. Data analysis and Kd estimation were performed with the MO Affinity Analysis software from Nanotemper.

T47D cells = test: PrestoBlue viability assay, T47D; assay type: cell-based; conditions: 1 nM E2, 72 h treatment, ± SD of 3 biological replicates
Protocol: (§1) T47D, MCF7, TamR3, and MDA-MB-231 cells were starved for 72 h and then seeded into black clear-bottom 96-well plates (Corning Life Sciences Cat#3904) at 20,000 cells/well (T47D, MCF7, TamR3) or 5,000 cells/well (MDA-MB-231). […] 20 µl of PrestoBlue Cell Viability Reagent (Thermo Fisher A13262) was added to each well and incubated at 37 °C for 1 h. Fluorescence intensity was measured using the TECAN F500 plate reader with emission and excitation wavelengths of […], respectively.

[4] = target: T2, ER (ERE-luc) in PC3 cells (Homo sapiens, UniProt P03372); test: Nuclear receptor luciferase transcriptional assay, ER; assay type: cell-based; conditions: 1 or 5 µM, 1 nM E2, PC3 cells
T2 construct: expressed in transfected cells; host or cells: PC3 cells
T2 sequence (P03372 whole entry): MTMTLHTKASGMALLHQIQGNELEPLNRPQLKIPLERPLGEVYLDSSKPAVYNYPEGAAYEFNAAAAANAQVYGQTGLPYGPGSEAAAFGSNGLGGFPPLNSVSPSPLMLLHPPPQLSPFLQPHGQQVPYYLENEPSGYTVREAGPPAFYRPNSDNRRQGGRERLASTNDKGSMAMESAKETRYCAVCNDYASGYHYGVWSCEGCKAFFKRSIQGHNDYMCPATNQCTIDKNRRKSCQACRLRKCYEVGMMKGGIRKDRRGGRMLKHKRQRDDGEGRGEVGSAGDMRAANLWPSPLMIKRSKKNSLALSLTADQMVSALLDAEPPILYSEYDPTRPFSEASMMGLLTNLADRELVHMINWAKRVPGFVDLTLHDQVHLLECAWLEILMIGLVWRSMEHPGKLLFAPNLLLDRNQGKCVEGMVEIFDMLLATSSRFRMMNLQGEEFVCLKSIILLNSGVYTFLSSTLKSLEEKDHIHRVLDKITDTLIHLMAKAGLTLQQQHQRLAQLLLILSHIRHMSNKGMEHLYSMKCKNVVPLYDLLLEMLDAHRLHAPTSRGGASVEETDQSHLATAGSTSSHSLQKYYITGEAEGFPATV
Protocol: PC3 cells (androgen receptor (AR)-, glucocorticoid receptor (GR)[…], progesterone receptor (PR)-, ER-) were starved for 72 h then seeded into a 96-well plate at a density of 5,000 cells/well. 24 h later, cells were transfected with either ER, AR, GR, or PR and a luciferase plasmid (ERE-luc for ER and ARR3tk-luc for AR, GR, and PR). 24 h post-transfection, cells were simultaneously stimulated with 1 nM E2 for ER, 0.1 nM R1881 for AR, 1 nM Dexamethasone for GR, or 1 nM Levonorgestrel for PR, and treated with 1 or 5 µM of VPC-260724 24 h post-treatment, cells were lysed with 50 µl of passive lysis buffer (Promega #E1910). 20 µl of lysate was transferred to a white flat-bottom 96-well plate (Corning Life Sciences Cat#3912). Luminescence readings were obtained using the TECAN M200 Pro plate reader following the addition of 50 µl of luciferase reagent (Promega Luciferase Assay System E1500).

TamR3 cells = test: PrestoBlue viability assay, TamR3; assay type: cell-based; conditions: 1 nM E2, 72 h treatment, ± SD of 3 biological replicates
Protocol: as §1

[5] = test system: ER target genes (cyclinD1, CDC2, E2F, PR, pS2) in TamR3 cells; test: Real-time PCR of ER target genes, TamR3; assay type: cell-based; conditions: 72 h
Protocol: Total RNA was extracted using TRIzol, 72 h post-treatment. cDNA synthesis was conducted using the Maxima First Strand cDNA Synthesis Kit for RT-qPCR (Thermo K1641) according to the manufacturer’s protocol. RT-PCR was conducted on the QuantStudio 7 Pro instrument and expression fold change was calculated using 2−ΔΔCt method normalized to 18s.

TamR3 spheroids = test: Viability assay in 3D spheroids, TamR3; assay type: cell-based; conditions: 1:2 dilution from 50 µM, 1 nM E2; read-out: IC50 on growth (area) of TamR3 spheroids
ER D538G/F404L mutant = ER D538G/F404L mutant (Homo sapiens, UniProt P03372, D538G/F404L); test: Transcriptional activity of fulvestrant resistant mutant ER; assay type: cell-based; conditions: compared to DMSO
Sequence of ER D538G/F404L mutant (P03372 whole entry F404L/D538G): as the sequence (P03372 whole entry) above, with F404L, D538G counted along it

T1 sequence (P03372 whole entry): as the sequence (P03372 whole entry) above

Cc1cccn2c(CNCc3cccc(N(C)C)n3)cnc12 [VPC-260724]
ER-SRC3 interactions (PLA signals per nuclei), MCF7 [1]: significantly reduced ER-SRC3 interactions | IC50 (MCF7 spheroids): 15.6 ± 1.4 µM | IC50 ([2]; 24 h): 5.7 µM | IC50 [2]: 5.75 ± 1.13 µM | Precipitation after addition of ER protein [3]: did not exhibit precipitation at any concentration | IC50 (T47D cells): 7.42 ± 2.12 µM | IC50 (T47D cells; Homo sapiens, T47D, 72 h): 7.4 µM | Transcriptional activity of ER [4]: dose-dependent inhibition | IC50 (TamR3 cells): 28.9 ± 4.55 µM | ER target gene expression in TamR3, combined with tamoxifen ([5]; 10 µM with 1 µM Tamoxifen): markedly reduced | mRNA levels of ER target genes, TamR3 ([5]; 10 µM, E2 stimulation): significant decrease | IC50 (TamR3 spheroids): 27 ± 3.2 µM | Transcriptional activity of mutant ER D538G/F404L (ER D538G/F404L mutant): significantly reduced the transcriptional activity
